The values that follow come from patent publication US20130287705A1, “METHOD OF TREATING MUCOSAL INFLAMMATION” (MCMASTER UNIVERSITY, priority 2010, published 2013).

Each structure is given as a SMILES string.

For one experiment, the system named is DSS and DNBS colitis. The following applies: PCPA treated mice after induction of colitis; cited from earlier work.
The next experiment deals with DSS-induced colitis. Nature of the experiment: DSS-induced colitis in mice treated with 5-HT7 antagonist. Type of experiment: in vivo, C57BL/6 mice.
The subject of another experiment is splenic dendritic cells. Nature of the experiment: Ex vivo culture of CD11c positive splenic DCs from bone-marrow reconstituted mice post-DSS. Type of experiment: cell-based. The note with it: LPS and serotonin vs LPS only. The protocol: Mice were sacrificed by cervical dislocation and spleens were excised and placed in Spleen Dissociation Medium (STEMCELL Technologies) and incubated for 30 min at room temperature. They were then strained through a 70-μm nylon mesh filter (BD Falcon) and washed with PBS supplemented with 2% fetal bovine serum (FBS) and 1 mmol/L EDTA. Splenic DCs were isolated using a CD11c^+ isolation kit (EasySep®, STEMCELL Technologies) according to the manufacturer's guidelines.
DCs isolated using CD11c positive selection were incubated at 1×10^6 cells per mL for 24 hours at 37° C. with or without 100 ng/mL LPS (Sigma-Aldrich) in RPMI 1640 supplemented with 10% FBS, 100 U/mL penicillin, 100 μg/mL streptomycin, and 50 μM 2-mercaptoethanol (Invitrogen Life Technologies). Supernatents were collected after 24 hours and analyzed for cytokine levels using ELISA kits for murine IL-12p40, IL-1β, and IL-6 (Quantikine Murine; R&D Systems, Minneapolis, Minn., USA).
6-8 week old male recipient C57BL/6 mice (Taconic) were irradiated with two doses of 5.5 Gy 48 hours apart administered via a ^137Cs γ-irradiation source (Gamma Cell 40; Nordian, Kanata, ON, Canada). Bone marrow cells (no fewer than 5×10^4) were harvested from femurs and tibiae of donor mice (5-HT7^+/+) and 5-HT7^−/− and given via tail vein injection to recipient mice within two hours of the second irradiation exposure. […]

In a further experiment the test system is dendritic cells. The note with it: dendritic cells from TPH1-/- mice in DSS-colitis, stimulation with 5-HT; cited from earlier work.

As for `NC(Cc1ccc(Cl)cc1)C(=O)O` (racemic) [PCPA, para-chloro-D, L-phenylalanine], in the experiment with DSS and DNBS colitis, the onset of colitis result is “Delayed onset”, the pro-inflammatory cytokine production result is on record as “down-regulation” and the severity of colitis entry is “decreased severity”.

For `CC1CCN(CC[C@H]2CCCN2S(=O)(=O)c2cccc(O)c2)CC1.Cl` [SB-269970, (2R)-1-[(3-Hydroxyphenyl)sulfonyl]-2-[2-(4-methyl-1-piperidinyl)ethyl]pyrrolidinehydrochloride], the “colitis severity (macroscopic damage)” value with DSS-induced colitis (40 mg/kg i.p., day 5 post-DSS induction, compared to controls) is listed as “significantly lower”. For the same molecule, the histological scores entry in the experiment on DSS-induced colitis (40 mg/kg i.p., day 5 post-DSS induction, compared to controls, FIG. 1C) was “significantly less severe”. Besides, the “myeloperoxidase (MPO) activity in colonic tissue” value in the experiment on DSS-induced colitis (40 mg/kg i.p., post-DSS, FIG. 2A) is “significantly lower”. In addition, the “production of IL-1β in colonic tissue” value with DSS-induced colitis (40 mg/kg i.p., post-DSS, FIG. 2B) is reported as “lower production”. In addition, the “production of TNF-α in colonic tissue” value in the experiment on DSS-induced colitis (40 mg/kg i.p., post-DSS, FIG. 2C) was “lower production”. In addition, the “production of IL-6 in colonic tissue” value in the experiment with DSS-induced colitis (40 mg/kg i.p., post-DSS, FIG. 2D) is given as “lower production”. Further, the “Clinical disease activity scores (fecal blood and consistency, and weight loss)” value in the experiment with DSS-induced colitis (40 mg/kg intraperitoneally, days 4 and 5 post-DSS administration, vs vehicle (saline), FIG. 1A) is reported as “significantly lower”.

For `NCCc1c[nH]c2ccc(O)cc12` [serotonin, 5-hydroxytryptamine], the IL-1β production entry with splenic dendritic cells (DCs from mice reconstituted with wild-type BMC, FIG. 9) was “significantly up-regulated”. For the same molecule, in the experiment with splenic dendritic cells (DCs from spleens of transgenic mice (5-HT7-/- BMC)), the “increase in IL-1β production” value is recorded as “not seen”. Besides, the IL-12 production entry in the experiment with dendritic cells is reported as “restored”.
